Source: ChEMBL document CHEMBL1150650, “Bioactive constituents from Iryanthera megistophylla” (2002)
Converted amounts (≈) assume the structure as drawn. The source made the active and inactive calls. The calls are words filed in the database; no cut-off is given here.

What was measured:
[1] = target: Acetylcholinesterase (Homo sapiens) (UniProt P22303); assay: Inhibition of acetylcholinesterase-mediated hydrolysis of acetylcholine at 0.8 mg/mL relative to galanthamine
Potato virus X = assay: Antiviral activity against Potato virus X in half leaf of Chenopodium quinoa at 9.3 mg/mL after 10 days; type: functional; settings: 240 h
Human alphaherpesvirus 1 = assay: Antiviral activity against HSV1 in african green monkey Vero cells at 320 ug/mL; type: functional, organism-based
Candida albicans [2] = assay: Antimicrobial activity against Candida albicans at 300 ug/mL after 24 hrs by disk diffusion method; type: functional, organism-based
Staphylococcus aureus [3] = assay: Antimicrobial activity against Staphylococcus aureus at 200 ug/mL after 24 hrs by disk diffusion method; type: functional, organism-based
Candida albicans [4] = assay: Antimicrobial activity against Candida albicans after 24 hrs by disk diffusion method; type: functional
Staphylococcus aureus [5] = assay: Antimicrobial activity against Staphylococcus aureus after 24 hrs by disk diffusion method; type: functional

Sequence of Acetylcholinesterase (Homo sapiens) (P22303 whole entry): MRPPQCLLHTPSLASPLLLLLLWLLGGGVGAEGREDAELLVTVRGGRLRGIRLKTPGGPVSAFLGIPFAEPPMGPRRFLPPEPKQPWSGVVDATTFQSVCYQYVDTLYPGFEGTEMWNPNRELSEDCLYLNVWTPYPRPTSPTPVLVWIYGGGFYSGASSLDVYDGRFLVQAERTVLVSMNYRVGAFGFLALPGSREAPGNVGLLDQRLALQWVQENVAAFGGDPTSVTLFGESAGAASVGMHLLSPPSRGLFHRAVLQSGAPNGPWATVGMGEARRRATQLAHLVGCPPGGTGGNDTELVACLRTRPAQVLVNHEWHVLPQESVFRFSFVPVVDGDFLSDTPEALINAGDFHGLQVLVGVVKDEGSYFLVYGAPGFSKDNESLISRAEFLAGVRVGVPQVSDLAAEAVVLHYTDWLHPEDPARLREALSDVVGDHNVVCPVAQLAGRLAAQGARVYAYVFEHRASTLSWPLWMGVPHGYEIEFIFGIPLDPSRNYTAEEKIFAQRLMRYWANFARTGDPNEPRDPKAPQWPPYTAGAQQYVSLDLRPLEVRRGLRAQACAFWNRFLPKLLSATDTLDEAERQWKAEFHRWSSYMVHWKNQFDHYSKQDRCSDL

| Compound | inhibition [1] [%] | inhibition at 9300 µg/mL (Potato virus X) [%] | MIC (Human alphaherpesvirus 1) | MIC (Candida albicans [2]) | MIC (Staphylococcus aureus [3]) | MIC (Candida albicans [4]) [mg/L] | MIC (Staphylococcus aureus [5]) [mg/L] |
| --- | --- | --- | --- | --- | --- | --- | --- |
| COc1ccc(-c2c(C)c(C)cc3ccc(O)cc23)cc1 | 67.6 | 36 | inactive | inactive | inactive | – | – |
| O=C1C[C@H](c2ccc(O)c(O)c2)c2c(cc(O)c3c2O[C@H](c2ccc(O)c(O)c2)[C@H](O)[C@H]3c2c(O)cc(O)c3c2O[C@H](c2ccc(O)c(O)c2)[C@H](O)C3)O1 [CINCHONAIN IIA] | – | 100 | inactive | – | inactive | 150 (≈ 203 µM) | – |
| C[C@@H]1OC(=O)[C@@H](CCCCCCCCCCCCCCCCCc2ccccc2)[C@@H]1O [GRANDINOLIDE] | – | 30 | inactive | inactive | inactive | – | – |
| COc1ccc(CCC(=O)c2c(OC)cc(O)c([C@@H](c3ccc(O)cc3)[C@@H](C)[C@H](C)Cc3ccc(O)cc3)c2O)cc1 [IRYANTHERIN K] | 77.4 | 89 | – | inactive | – | – | 50 (≈ 87.6 µM) |
| COc1ccc(CCC(=O)c2c(OC)cc(O)c([C@H](c3ccc(O)cc3)[C@@H](C)[C@H](C)Cc3ccc(O)cc3)c2O)cc1 [IRYANTHERIN L] | – | 67 | inactive | inactive | inactive | – | – |
| CCCCCCCC/C=C\CCCCCCCCCCCCCCCC[C@H]1C(=O)O[C@H](C)[C@@H]1O [MEGISLACTONE] | – | 20 | inactive | inactive | inactive | – | – |
| Oc1cc(O)c2c(c1)O[C@H](c1ccc(O)c(O)c1)[C@H](O)[C@H]2c1c(O)cc(O)c2c1O[C@H](c1ccc(O)c(O)c1)[C@H](O)C2 [PROCYANIDIN B2] | – | 98 | – | – | – | 150 (≈ 259 µM) | 100 (≈ 173 µM) |
| O=c1c(O)c(-c2ccc(O)c(O)c2)oc2cc(O)cc(O)c12 [QUERCETIN] | – | 100 | – | – | – | – | – |
| NC(=O)c1ncn([C@@H]2O[C@H](CO)[C@@H](O)[C@H]2O)n1 [RIBAVIRIN] | – | 94 | – | – | – | – | – |
